Common to all, as to assay: relative viability (nuclei count vs DMSO), 5 days (fraction); higher = more cells survive
Compound in the assay “BAY61-3606 + Pemetrexed”: COC1=C(C=C(C=C1)C2=CC3=NC=CN3C(=N2)NC4=C(C=CC=N4)C(=O)N)OC [BAY61-3606] + Nc1nc2[nH]cc(CCc3ccc(C(=O)N[C@@H](CCC(=O)O)C(=O)O)cc3)c2c(=O)[nH]1 [Pemetrexed] (partner 0.2 µM)
The procedure, abridged:
(§1)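 Lung cancer cell lines were pin-tool dosed in 1536-well plates on the day after seeding, with either a lone drug or a fixed anchor-drug dose plus five library-drug doses (not always all listed) in √10 steps. Nuclei were counted on 4× images after 5 days. Relative viability is the ratio of treated-well to vehicle-well nuclei counts, with each value a median of duplicate plates.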

Compound in the assay “Doxorubicin + Vorinostat”: COc1cccc2c1C(=O)c1c(O)c3c(c(O)c1C2=O)C[C@@](O)(C(=O)CO)C[C@@H]3O[C@H]1C[C@H](N)[C@H](O)[C@H](C)O1 [Doxorubicin] + O=C(CCCCCCC(=O)Nc1ccccc1)NO [Vorinostat] (partner 1 µM)
The procedure, abridged:
as §1

Compound in the assay “BAY61-3606 + Crizotinib”: COC1=C(C=C(C=C1)C2=CC3=NC=CN3C(=N2)NC4=C(C=CC=N4)C(=O)N)OC [BAY61-3606] + C[C@@H](Oc1cc(-c2cnn(C3CCNCC3)c2)cnc1N)c1c(Cl)ccc(F)c1Cl [Crizotinib] (partner 1 µM)
The procedure, abridged:
as §1

Compound in the assay “Doxorubicin + Alpelisib”: COc1cccc2c1C(=O)c1c(O)c3c(c(O)c1C2=O)C[C@@](O)(C(=O)CO)C[C@@H]3O[C@H]1C[C@H](N)[C@H](O)[C@H](C)O1 [Doxorubicin] + Cc1nc(NC(=O)N2CCC[C@H]2C(N)=O)sc1-c1ccnc(C(C)(C)C(F)(F)F)c1 [Alpelisib] (partner 2 µM)
In a few lines: as §1

Data on one cell line can be found in the supplement of paper PMC10307832.

In the case of UMC-11, the relative viability came to 0.813 with BAY61-3606 + Pemetrexed (first compound 0.02 µM); 0.795 with BAY61-3606 + Pemetrexed (first compound 0.06325 µM); 0.789 with BAY61-3606 + Pemetrexed (first compound 0.2 µM); 0.781 with BAY61-3606 + Pemetrexed (first compound 0.6325 µM); 0.612 with BAY61-3606 + Pemetrexed (first compound 2 µM); 0.52 with Doxorubicin + Vorinostat (first compound 0.001 µM). Besides, the relative viability came out at 0.354 with Doxorubicin + Vorinostat (first compound 0.003162 µM); 0.432 with Doxorubicin + Vorinostat (first compound 0.01 µM); 0.329 in the assay with Doxorubicin + Vorinostat (first compound 0.03162 µM); 0.37 with Doxorubicin + Vorinostat (first compound 0.1 µM); 0.664 with BAY61-3606 + Crizotinib (first compound 0.02 µM); 0.613 in the assay with BAY61-3606 + Crizotinib (first compound 0.06325 µM). For the same cell line, the relative viability with BAY61-3606 + Crizotinib (first compound 0.2 µM) came out at 0.503; with BAY61-3606 + Crizotinib (first compound 0.6325 µM) it was 0.762; with BAY61-3606 + Crizotinib (first compound 2 µM), 0.509; with Doxorubicin + Alpelisib (first compound 0.001 µM), 1.11; with Doxorubicin + Alpelisib (first compound 0.003162 µM) it was 1.17; with Doxorubicin + Alpelisib (first compound 0.01 µM), 0.958. For the same cell line, the relative viability amounted to 0.693 with Doxorubicin + Alpelisib (first compound 0.03162 µM) and 0.968 with Doxorubicin + Alpelisib (first compound 0.1 µM).
